Experimental data from patent publication US6569640B1, “Method of fractionation of biologically-derived materials using critical fluids” (Aphios Corporation, priority 1993, dated 2003).

Tested on: Bacillus subtilis
Assay: Antimicrobial disk diffusion assay
Assay type: cell-based
Conditions: disks containing 10 μg
Experimental: Microbial extracts were tested for antimicrobial activity by a disk diffusion assay. Diffusion of the metabolites into the agar creates a zone of growth inhibition around the disk if the organism is susceptible to the antimicrobial metabolite. Ten to 20 μl amounts of extract or extract fractions were applied to Whatman 3MM filter paper disks 7 mm in diameter. The disks were dried under vacuum overnight to evaporate the solvent. Bioassays were carried out with the target organism Bacillus subtilis. The target organisms were grown in nutrient broth (Difco), and adjusted to an A600 of 0.1. One hundred μl of the cell suspension was applied to the surface of a nutrient agar plate and spread uniformly with a sterile spreader. After the liquid had absorbed into the agar, the disks were placed on the surface, about 1 cm apart. The plates were incubated at 25-30° C. for 24-36 hours. Antimicrobial activity was indicated by a zone of inhibition around a disk where bacterial growth was prevented. […] In addition, positive and negative control disks were utilized. For the negative control, a disk which received only methanol was run in each test. […] For the positive control, disks containing the antimicrobial gentamycin (10 μg) were used.

For gentamycin, the “zone of inhibition, positive control disk” value was “showed zones of inhibition”.
